Tests used:
mouse H22 hepatoma cells = details: oxaliplatin 15 mg/kg tail vein once, products 0.45 g/kg intragastric
Procedure: The anti-tumor effect of the product of the disclosure on a Hepatoma-22 (H22) mouse model of live cancer is studied.
Positive control drug: oxaliplatin.
Animals and preparation of tumors are as follows. BALB/c male mice are adopted, weighing 18-22 g. The mice are fed in specific-pathogen free (SPF) grade animal house, with temperature of 20-25° C., relative humidity of 40%-70%, 6 mice per cage, illumination time of 12 h, regular and quantitative addition of feed, free drinking water, and daily replacement of padding.
Transplanted tumor cells: 10^6 mouse H22 hepatoma cells are injected into abdominal cavity for passage, and the hepatoma cells are collected after 7-10 days for subcutaneous inoculation.
Experimental methods of tumor passage preservation for in vivo tumor inhibition effect evaluation: H22 hepatoma mice are inoculated intraperitoneally and the ascites is taken for passage and preservation.
Tumor inoculation: H22 hepatocellular carcinoma bearing mice on the 10th day of ascites passage are taken, the mice are killed by cervical vertebra removal, the abdominal skin is disinfected, milky white ascites is absorbed with a sterile syringe, and the concentration of tumor cells is adjusted to 1×10^6 cells per milliliter (mL) with normal saline for injection. The right armpit skin of BALB/c mice is disinfected with alcohol cotton balls, 0.2 mL of the tumor cell suspension is inoculated subcutaneously, and the mice are raised routinely.
After 24 hours of the last administration, the mice are sacrificed by cervical dislocation, and the tumor tissues are stripped and weighed. The curative effect is evaluated by tumor weight inhibition rate (%), and analysis of variance (ANOVA) test is used for statistical comparison between groups.

[1] = test system: Human lung cancer cells (A549); details: A549 transplanted tumor, oxaliplatin 15 mg/kg tail vein once, products 0.45 g/kg intragastric
Source text: (§1) Experimental animals: BLAB/c female nude mice, 6-7 weeks old, weighing 18-20 g.
(§2) Subcutaneous tumor cell inoculation in mice: Human lung cancer cells (A549), human ovarian cancer cells (Skov-3) and human cervical cancer epithelial cells (Hela) in logarithmic growth phase are taken and made into cell suspension (1×10^7 cells/mL) with phosphate buffered saline (PBS), each mouse is inoculated with 2×10^6 cells, the inoculation volume is 200 microliters (μL), and then inoculated subcutaneously in the armpit of BLAB/c nude mice. The selected tumor tissues are put into a glass homogenizer, ground with sterile physiological saline, filtered into a single cell suspension through a sieve, and the number of living cells is counted by trypan blue staining. Each nude mouse is inoculated with 200 μL cell suspension (including 1×10^6 cells) under its armpit.
(§3) Experimental grouping and methods: nude mice with the same tumor size are selected, and the nude mice are weighed and randomly divided into groups. […] The drug concentration and specific grouping are as follows. The model control group is intragastrically administered with 200 μL normal saline once a day, the mice are administered once on the second day after tumor inoculation. […] After 24 hours of the last administration, the tumor mass is taken out, the tumor weight is measured and the tumor inhibition rate is calculated.

[2] = test system: human ovarian cancer cells (Skov-3); details: Skov-3 transplanted tumor, oxaliplatin 15 mg/kg tail vein once, products 0.45 g/kg intragastric
Source text: as §1, §2, §3

[3] = test system: human cervical cancer epithelial cells (Hela); details: Hela transplanted tumor, oxaliplatin 15 mg/kg tail vein once, products 0.45 g/kg intragastric
Source text: as §1, §2, §3

O=C1[O][Pt]2([NH][C@@H]3CCCC[C@H]3[NH]2)[O]C1=O [Oxaliplatin, oxaliplatin]
Tumor weight (mouse H22 hepatoma cells; H22 subcutaneous tumor, 24 hours after last administration): 1.14 ± 0.29 g
Inhibition rate (%) (mouse H22 hepatoma cells; H22 tumor weight inhibition rate): 50.22%
Weight Start (mouse H22 hepatoma cells; body weight of H22 tumor-bearing mice at start): 20.09 ± 1.08
Tumor weight ([1]; X ± SD): 0.98 ± 0.32 g
Inhibition rate (%) [1]: 58.25%
Tumor weight ([2]; X ± SD): 1.78 ± 0.33 g
Inhibition rate (%) [2]: 45.25%
Tumor weight ([3]; X ± SD): 1.78 ± 0.33 g
Inhibition rate (%) [3]: 45.25%

Reference: US20250222051A1, “MU[…] ADJUVANT TREATMENT OF TUMOR, AND PREPARATION METHOD AND APPLICATION THEREOF” (Changde Jizhi Biological Technology Co., Ltd, priority 2024, published 2025)
